Holding throughout (assay type): functional, organism-based
The test system of test [1] is Sinorhizobium meliloti. Put plainly: Osmoprotective activity of compound in Rhizobium meliloti 102F34 by restoring its growth rate was evaluated; Highly toxic.
Test [2] deals with Sinorhizobium meliloti. Put plainly: Inhibition of the growth of Rhizobium meliloti was observed at 1 mM by inoculation of 0.5 M NaCl; No growth was observed.
The subject of test [3] is Escherichia coli. Put plainly: Inhibitory activity against growth of Escherichia coli MC4100 without NaCl; No effect.
Test [4] deals with Escherichia coli. Put plainly: Inhibitory activity against growth of Escherichia coli MC4100 in presence 0.8M NaCl; Strong inhibition.
Test [5] relates to Sinorhizobium meliloti. Description: Osmoprotective activity of compound in Rhizobium meliloti 102F34 by restoring its growth rate was evaluated; Highly osmoprotective.

Active and inactive are the calls of the source. The calls are words filed in the database; no cut-off is given here.

For `C[As+](C)(C)CC(=O)[O-]`, the Activity entry with Sinorhizobium meliloti [1] was “Toxic”; in the test on Sinorhizobium meliloti [2], “No growth”; with Escherichia coli [4], “No growth”. Moreover, the result with Escherichia coli [3] was inactive.

In the case of `C[P+](C)(C)CC(=O)[O-]`, the Activity entry in the test on Sinorhizobium meliloti [1] was “Toxic”; in the test with Sinorhizobium meliloti [2] it was “No growth”; in the test on Escherichia coli [4], “No growth”. Also, the outcome in the test on Escherichia coli [3] was inactive.

On to `C[N+](C)(C)CC(=O)O`, for which the outcome with Escherichia coli [3] was inactive. The Activity result in the test on Escherichia coli [4] and in the test with Sinorhizobium meliloti [5] was “Highly osmoprotective” in each case.

(Values after ChEMBL document CHEMBL1130291, “Synthesis of trimethylated phosphonium and arsonium analogues of the osmoprotectant glycine betaine; contrasted biological activities in two bacterial species” (Bioorg Med Chem Lett, 1997).)
